In this assay the target is STING (Homo sapiens, UniProt Q86WV6). Kind of assay: CETSA and ITDRF in A431 cells, STING. It is filed as binding. Also on record: endogenous in cells; host or cells: A431. The source says:
It was verified whether the oxopiperazine derivative of the present invention was bound to STING among STING and TRIM29 to inhibit interaction thereof, based on the compound of Formula 1, by the cellular thermal shift assay (CETSA) and the isothermal dose response fingerprint (ITDRF) which were major technologies for verifying the interaction between small molecule compounds and target proteins. (D. M. Molinaetal., Science 2013, 341, 84-87.)
To verify the target of the compound of Formula 1 using the CETSA technique, the human A431 cell lines and mouse Raw264.7 cell lines were seeded on a 100-mm or 150-mm culture dish and cultured for one day. […] Afterwards, centrifugation was performed at 20000 g for 20 minutes at 4° C., the supernatant was transferred to a new container, and each concentration was measured by using the Micro BCA™ protein assay kit (ThermoFisher) according to the protocol of the manufacturer. The concentration of each sample was equally adjusted by using the RIPA lysis buffer, the 5× SDS-PAGE loading buffer (Biosesang) was added according to the ratio of the manufacturer, and the resultant was treated at 95° C. for 5 minutes and analyzed by using the Western blotting method described above.

The structures appear in SMILES notation.

Sequence of STING (Q86WV6 whole entry H232R): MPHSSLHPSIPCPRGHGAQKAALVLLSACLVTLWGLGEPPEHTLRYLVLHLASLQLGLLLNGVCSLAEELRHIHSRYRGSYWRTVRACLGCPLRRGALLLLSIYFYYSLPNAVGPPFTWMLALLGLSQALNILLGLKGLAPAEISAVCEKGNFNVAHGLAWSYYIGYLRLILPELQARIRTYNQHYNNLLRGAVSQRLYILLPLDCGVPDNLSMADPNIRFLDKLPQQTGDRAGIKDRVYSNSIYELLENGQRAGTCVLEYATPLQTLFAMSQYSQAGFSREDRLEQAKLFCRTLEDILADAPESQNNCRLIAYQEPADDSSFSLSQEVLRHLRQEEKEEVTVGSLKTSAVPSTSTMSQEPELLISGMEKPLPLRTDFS

For the compound `COc1ccc(CC2=CN(c3ccc(C(=O)NC[C@H]4CCCO4)cc3[N+](=O)[O-])[C@H](C(C)C)C(=O)N2Cc2ccc(O)cc2)cc1` [Formula 1, 4-((R)-4-(4-hydroxybenzyl)-2-isopropyl-5-(4-methoxybenzyl)-3-oxo-3,4-dihydropyrazin-1 (2H)-yl)-3-nitro-N-(((R)-tetrahydrofuran-2-yl)methyl)benzamide], the “CETSA thermal stability of STING” value (FIG. 11) is given as “induced thermal destabilization by selective binding only to STING”. Besides, the “ITDRF thermal stability of STING” value (FIG. 12) is recorded as “reduced the thermal stability of STING at high concentrations in a concentration-dependent manner”.
